These results are taken from patent US20020107401A1, “Production of phosphonopyrazoles” (MONSNTO TECHNOLOGY LLC., priority 2000, published 2002).

In the assay the test system is wheat variety 'OSLO'. Kind of assay: Chemical hybridizing agent assay for male sterility (male gametocidal activity), foliar spray, seed counts. The format is in vivo. The note with it: Table 2, foliar. Here is the method: The compounds of structure 3 and analogs are applied at a rate of 50-1000 μg/plant to cause pollen sterility. The male gametocidal activity is determined on the wheat variety ‘OSLO’, a double-dwarf hard red spring wheat. The wheat seed is planted to a depth of 0.5 to 1 inch (1-2.5 cm) in a 6-inch long (15 cm) conetainer (a cone shaped container, one seed per conetainer). The conetainers are filled with Metromix 200 potting soil supplemented with a slow release fertilizer, Osmocote and Sierra combined at 93 g/cu ft soil for a NPK of 31-20-24. Micromax with micronutrients is added at 17 g/cu ft rate. Fertilizer supplier is Hummerts, Earth City, Mo. 63045. The RLC-4 conetainers are 1×6 inch (2.5×15 cm) with a capacity of 4 cu in. (Stuewe & Sons, Inc., Corvallis, Oreg., 97333-9461). These are loaded into racks of 100 that occupy a 1.0 ft by 1.0 ft area. After seeding, the racks are placed in growth chambers with 14/10 hour day/night cycle at 18° C. These chambers are equipped with metal halide lamps that deliver approximately 300 μE/m^2/sec. Humidity is maintained at 50%, and plants are watered as needed. Approximately six weeks after seeding, wheat plants are selected for chemical application at or just prior to flag-leaf emergence from the boot (Feekes Scale 7.5-8.0) (Large, 1954. Plant Pathology 3:128-129). Plants are placed in a rack containing cardboard dividers to prevent each from being cross contaminated by an adjacent spray. The following procedures are used to evaluate the activity of the compounds of the invention for inducing male sterility in cereals. The plant heights vary and as uniformity is required for chemical application, the top 0-10 cm are removed by excision, such that the plant height is flush with the top of the divider. Prior to application, a 50 mL solution of DMSO (dimethylsulfoxide) containing the chemical hybridizing agent is diluted with 150 mL of water containing 1% SILWET L-77 surfactant (Witco Corp., Greenwich, Conn. 06831-2559) plus 2% humectant (glycerin, supplied by VWR Scientific Products Co.). The formulated chemicals are applied foliarly as an atomized spray onto the plants. After application, the plants are moved into growth chambers and allowed to grow until the heads emerge from the boot. Prior to anther extrusion (approximately 10 to 14 days after treatment), the plants are placed back into dividers in order to isolate the seed heads and to prevent cross-pollination. The plants are moved to a greenhouse, which has similar environmental conditions as the growth chambers. Approximately one week later (3 weeks after treatment (WAT) and at anther extrusion), open head morphology ratings are initiated. Plants are rated four times over a period of eight days (Table 2). The chemical hybridizing agent Genesis® (a registered Trade Mark of the Monsanto Co) is used as the positive control and for comparative purposes as to the rate of application and the efficacy as determined by percent sterility. The negative control is treatment of the wheat plants with the compounds making up the formulation of surfactant and humectant without the chemical compositions being assayed as chemical hybridizing agents. The data in Table 2 is expressed as % Sterility=(1-(Ave. normalized seed counts of sample/Ave. normalized seed counts of controls))*100 with the treatments comprising foliar application and rate titration at Feekes stage 8, across five replicates. Approximately two weeks after open head ratings are completed (six WAT), seed counts are collected.

For `COP(=O)(OC)c1c(-c2ccccc2)nn(-c2cc(C)cc(C)c2)c1O` [Compound 10b, Dimethyl[1-(3,5-dimethylphenyl)-5-hydroxy-3-phenyl-1H-pyrazol-4-yl]phosphonate], the “Sterility (%)” value is, setting by setting: (rate 50 μg/plant, Feekes 8) 5%; (rate 125 μg/plant, Feekes 8) 0%; (rate 250 μg/plant, Feekes 8) 11%; (rate 500 μg/plant, Feekes 8) 33%; (rate 1000 μg/plant, Feekes 8) 45%.

For the compound “methyl potassium[4-chlorophenyl-3-hydroxy-1H-pyrazol-4-yl]phosphonate [Compound 3m]”, the “Sterility (%)” value reads like this: (rate 50 μg/plant, Feekes 6) 23%; (rate 50 μg/plant, Feekes 8) 28%; (rate 125 μg/plant, Feekes 6) 0%; (rate 125 μg/plant, Feekes 8) 20%; (rate 250 μg/plant, Feekes 6) 31%; (rate 250 μg/plant, Feekes 8) 16%. In addition, the “Sterility (%)” value (rate 500 μg/plant, Feekes 6) amounted to 43% and the “Sterility (%)” value (rate 500 μg/plant, Feekes 8) is 15%.
